One data set concerns bacteria. Particulars: cited from earlier work; for antibacterial activity, previously shown: control peptides, for caerin 1.3 against most of the bacteria tested. An excerpt: Its sequence is shown here for comparison with the synthetically modified caerin 1.1 peptide. Amino acid modifications to the caerin 1.1 and to the caerin 1.9 peptides are shown in bold type with gray shading. All of the peptides studied have many simil ...

Data set [1] has as its system Lactobacillus rhamnosus, ATCC 39595. As to the kind of experiment: Bacterial growth assay, Lactobacillus rhamnosus. The settings on record: for inhibition of L. rhamnosus growth, result in words: peptide tested at 0.4 or 0.8 to 50 µM; for reduction of L. rhamnosus growth: vs no-peptide control; for inhibition of L. rhamnosus growth at highest concentration: 50 µM peptide (50 µm [sic]), one-way ANOVA with Tukey's post hoc test; for viability as measured by 24-h growth of L. rhamnosus: range of concentrations 0.4–25 µM. It counts as cell-based. As to the method:
(§1) Bacterial strains were obtained from the American Type Culture Collection (Lactobacillus crispatus, ATCC® 33197™; Lactobacillus rhamnosus, ATCC® 39595™; Neisseria lactamica (ATCC® 23970™). Growth assays were conducted to determine the concentrations at which each peptide inhibited the growth of the three bacterial species. The Lactobacillus bacteria were grown in de Man, Rogosa, and Sharpe (MRS) broth and the N. lactamica in Fastidious Broth. Bacterial cells were cultured in broth for 24 to 48 h until they reached an optical density of about 0.1 O.D. units at 630 nm and diluted to achieve a concentration of 10^6 cells per mL. The peptides were serially diluted with sterile water to reach peptide concentrations of 0.4, 0.8, 1.6, 3.12, 6.25, 12.5, 25, and 50 µM final concentrations in culture. The bacterial cells at 10^6 cells/mL and the peptides were plated in triplicate in a 96-well plate. Included was a negative control for growth (three to five replicates of bacteria plus penicillin-streptomycin), a positive control for growth (three to five replicates of bacteria plus water), and a blank (three to five replicates of broth plus water) to ensure the broth was not contaminated. Bacterial cells were plated in 50 µL of broth, and each dilution of peptides was added in a volume of 50 µL to achieve a total volume of 100 µL. For the positive control, 50 µL of sterile water was added to 50 µL of cells in broth. For the negative control, 50 µL of the antibiotic solution was added to 50 µL of cells in broth. The O.D. of each well was recorded before and after a 24-h incubation period at 37 °C using a Biotek ELx808 reader (Biotek, Winooski, VT, USA). Data for representative experiments are expressed as average O.D. ± standard error of the mean at each peptide concentration. To express data from replicate experiments, the average as percent growth in comparison with the positive (no peptide) control set at 100% for the range of concentrations from 6.25–50 µM is shown. […] A p-value of less than 0.05 was considered significant.

Data set [2] concerns Lactobacillus crispatus, ATCC 33197. As to the kind of experiment: Bacterial growth assay, Lactobacillus crispatus. It counts as cell-based. Particulars: 24 h, 37 °C, O.D. 630 nm; for effect on L. crispatus growth, result in words: peptide tested at 0.4 or 0.8 to 50 µM; for inhibition of L. crispatus growth at highest concentration: 50 µM peptide, MRS broth; for inhibition of L. crispatus growth at lower concentrations: concentrations of 25 µM or less. As to the method:
as §1

Another data set deals with HIV. The settings on record: cited from earlier work; for inhibition of HIV infection, result in words: percent HIV infection of target T cells, 6.25–25 µM, replotted from a previous publication. An excerpt:
Its sequence is shown here for comparison with the synthetically modified caerin 1.1 peptide. Amino acid modifications to the caerin 1.1 and to the caerin 1.9 peptides are shown in bold type with gray shading. […] Thus, we first tested these four peptides for effects on growth of L. rhamnosus. […] To evaluate both parameters at once, we plotted the patterns of inhibition of HIV infection from a previous publication on the same axes as the new data for effects on L. rhamnosus and L. crispatus growth. […] Among all of the ...

In data set [3] the test system is T lymphocytes or endocervical cell lines. The settings on record: cited from earlier work.
Data set [4] relates to Neisseria lactamica (ATCC 23970). As to the kind of experiment: Bacterial growth assay, Neisseria lactamica. The settings on record: tested twice; 0.8 to 50 µM; 24 h, 37 °C. It counts as cell-based. As for the experimental part: Bacterial strains were obtained from the American Type Culture Collection (Lactobacillus crispatus, ATCC® 33197™; Lactobacillus rhamnosus, ATCC® 39595™; Neisseria lactamica (ATCC® 23970™). Growth assays were conducted to determine the concentrations at which each peptide inhibited the growth of the three bacterial species. The Lactobacillus bacteria were grown in de Man, Rogosa, and Sharpe (MRS) broth and the N. lactamica in Fastidious Broth. Bacterial cells were cultured in broth for 24 to 48 h until they reached an optical density of about 0.1 O.D. units at 630 nm and diluted to achieve a concentration of 10^6 cells per mL. The peptides were serially diluted with sterile water to reach peptide concentrations of 0.4, 0.8, 1.6, 3.12, 6.25, 12.5, 25, and 50 µM final concentrations in culture. The bacterial cells at 10^6 cells/mL and the peptides were plated in triplicate in a 96-well plate. […] The O.D. of each well was recorded before and after a 24-h incubation period at 37 °C using a Biotek ELx808 reader (Biotek, Winooski, VT, USA). Data for representative experiments are expressed as average O.D. ± standard error of the mean at each peptide concentration. […]

Setting [5] is: 25 µM peptide, MRS broth, 24 h, 37 °C, O.D. 630 nm.

“Also recorded” adds a separate entry of the source.

As for “GLLSVLGSVAQHVLPHVVPVIAEHL-NH2 [caerin 1.3, caerin 1 antimicrobial peptide, origin L. caerulea; control peptide]”, the “antibacterial activity, previously shown” value in the data set with bacteria is listed as “reduced antibacterial activity”. For the same substance, the “inhibition of L. rhamnosus growth, result in words” value in data set [1] (24 h, 37 °C, O.D. 630 nm) is on record as “very limited inhibition of both species of lactobacilli; also recorded: almost no inhibition at any dose tested”. The “effect on L. crispatus growth, result in words” value (“effect on L. crispatus growth” for short) in data set [2] was “largely unaffected; also recorded: very limited inhibition of both species of lactobacilli”. Also, the “inhibition of HIV infection, result in words” value (“inhibition of HIV infection” below) in the data set with HIV was “inhibited HIV less than caerin 1.9”.

Take “GLFGVLGSIAKHLLPHVVPVIAEKL-NH2 [caerin 1.9 sm, synthetic analog of caerin 1.9 with a single amino acid change]”: the “inhibition of L. rhamnosus growth, result in words” value in data set [1] (24 h, 37 °C, O.D. 630 nm) was “inhibited the growth of L. rhamnosus more than caerin 1.9; also recorded: inhibited growth to a greater extent than the previous four”. For the same substance, the “inhibition of HIV infection” value in the data set on HIV is listed as “equal or greater inhibition of HIV infection than caerin 1.9”.

For the substance “GLLSVLGSVAKHVLPHVVPVIAAAL-NH2 [caerin 1.1 mod 7, synthetically modified caerin 1.1 peptide]”, the “inhibition of L. rhamnosus growth, result in words” value in data set [1] (24 h, 37 °C, O.D. 630 nm) is “inhibited the growth of L. rhamnosus more than caerin 1.9; also recorded: inhibited growth to a greater extent than the previous four”. In the data set with HIV, the “inhibition of HIV infection” value is on record as “equal or greater inhibition of HIV infection than caerin 1.9”.

For the substance “GLLGVLGSVAKHVLPHVVPVIAEHL-NH2 [caerin 1.2, caerin 1 antimicrobial peptide, origin L. caerulea]”, the antibacterial spectrum entry with bacteria is on record as “wide-spectrum anti-bacterial agents”. Further, in data set [1] (setting [5]), the “reduction of L. rhamnosus growth” value was 40–55%. For the same substance, the “inhibition of L. rhamnosus growth at highest concentration” value in data set [1] (24 h, 37 °C, O.D. 630 nm) is reported as “significantly inhibited growth”. In addition, the “viability as measured by 24-h growth of L. rhamnosus” value (shortened to “viability as measured by 24-h growth”) in data set [1] is listed as “remained quite high”. Besides, in data set [2], the “inhibition of L. crispatus growth at highest concentration” value is on record as “inhibitory” and the “inhibition of L. crispatus growth at lower concentrations” value is “almost no inhibition”. Moreover, the “toxicity to T lymphocytes or endocervical cell lines” value (“toxicity” for short) in data set [3] is “limited toxicity”. Moreover, the “inhibition of N. lactamica growth, comparison in words” value in data set [4] is “less effective against N. lactamica than caerin 1.9 and caerin 1.10”. In the data set on HIV, the “inhibition of HIV (transmission), previous studies” value (“inhibition of HIV (transmission)” below) was “very effective inhibitors of HIV” and the “inhibition of HIV infection” value is “effective inhibitors of HIV infection”.

Take “GLFGVLGSIAKHVLPHVVPVIAEKL-NH2 [caerin 1.9, caerin 1 antimicrobial peptide, origin L. chloris]”: in the data set on bacteria, the antibacterial spectrum result is listed as “wide-spectrum anti-bacterial agents”. Further, in data set [1] (25 µM peptide, percent growth vs no-peptide control set at 100%, 10^6 cells/mL, MRS broth, 24 h, 37 °C, O.D. 630 nm, average of replicate experiments), the “average bacterial growth of L. rhamnosus” value is “about 83%”. In data set [1] (24 h, 37 °C, O.D. 630 nm), the “inhibition of L. rhamnosus growth at highest concentration” value is recorded as “significantly inhibited growth” and the “inhibition of L. rhamnosus growth, result in words” value is recorded as “least apparent inhibition of growth of both tested lactobacilli”. Also, in data set [1], the “viability as measured by 24-h growth” value was “remained quite high”. Moreover, in data set [2], the “inhibition of L. crispatus growth at highest concentration” value is recorded as “inhibitory”; the “inhibition of L. crispatus growth at lower concentrations” value is recorded as “almost no inhibition”; the “effect on L. crispatus growth” value was “least apparent inhibition of growth of both tested lactobacilli”. For the same substance, the “toxicity” value in data set [3] is “limited toxicity”. Also, in the data set with HIV, the “inhibition of HIV (transmission)” value was “very effective inhibitors of HIV” and the “inhibition of HIV infection” value was “best profile of inhibition of HIV”.

As for “GLLSVLGSVAKHVLPHVVPVIAEHL-NH2 [caerin 1.1, antimicrobial peptide from Litoria caerulea, reference compound]”, the antibacterial spectrum entry in the data set with bacteria was “wide-spectrum anti-bacterial agents”. In the data set with HIV, the “inhibition of HIV (transmission)” value is “less effective in the inhibition of HIV transmission than other caerin family peptides”.

Regarding “GLFGILGSVAKHVLPHVIPVVAEHL-NH2 [caerin 1.20, caerin 1 antimicrobial peptide, origin L. caerulea/L. splendida]”, the antibacterial spectrum result in the data set with bacteria is “wide-spectrum anti-bacterial agents”. Besides, in data set [1] (setting [5]), the “reduction of L. rhamnosus growth” value is 40–55%. In data set [1] (24 h, 37 °C, O.D. 630 nm), the “inhibition of L. rhamnosus growth at highest concentration” value is “significantly inhibited growth” and the “inhibition of L. rhamnosus growth, result in words” value is recorded as “slightly more inhibitory against L. rhamnosus than caerin 1.9”. Further, the “viability as measured by 24-h growth” value in data set [1] was “remained quite high”. The “toxicity” value in data set [3] is reported as “limited toxicity”. Further, in the data set with HIV, the “inhibition of HIV (transmission)” value is “very effective inhibitors of HIV” and the “inhibition of HIV infection” value is listed as “slightly less effective in the inhibition of HIV”.

As for “GLLSSLSSVAKHVLPHVVPVIAEHL-NH2 [caerin 1.4, caerin 1 antimicrobial peptide, origin L. caerulea, L. gilleni; control peptide]”, the “antibacterial activity, previously shown” value in the data set on bacteria is listed as “reduced antibacterial activity”. Besides, in data set [1] (24 h, 37 °C, O.D. 630 nm), the “inhibition of L. rhamnosus growth, result in words” value is reported as “very limited inhibition of both species of lactobacilli; also recorded: almost no inhibition at any dose tested”. Further, the “effect on L. crispatus growth” value in data set [2] is recorded as “largely unaffected; also recorded: very limited inhibition of both species of lactobacilli”. Further, the “inhibition of HIV infection” value with HIV is “inhibited HIV less than caerin 1.9”.

With “GLLSVLGSVAKHVLPHVVPVIAEKL-NH2 [caerin 1.10, caerin 1 antimicrobial peptide, origin L. splendida]”, the antibacterial spectrum entry in the data set with bacteria is recorded as “wide-spectrum anti-bacterial agents”. In addition, the “reduction of L. rhamnosus growth” value in data set [1] (setting [5]) is 40–55%. For the same substance, the “inhibition of L. rhamnosus growth at highest concentration” value in data set [1] (24 h, 37 °C, O.D. 630 nm) is given as “significantly inhibited growth”. For the same substance, in data set [1], the “viability as measured by 24-h growth” value is recorded as “remained quite high”. Moreover, in data set [2], the “inhibition of L. crispatus growth at highest concentration” value is “no inhibition”. Besides, in data set [3], the “toxicity” value is “limited toxicity”. For the same substance, in the data set with HIV, the “inhibition of HIV (transmission)” value was “very effective inhibitors of HIV” and the “inhibition of HIV infection” value was “effective inhibitors of HIV infection”.

Source of the values: article PMC7600266, “Caerin 1 Antimicrobial Peptides that Inhibit HIV and Neisseria May Spare Protective Lactobacilli” (Antibiotics, 2020).
